# Molecular target: T1, Human serum albumin (HSA) (Homo sapiens, UniProt P02768)
# T1 construct: gene ALB; Essentially fatty acid-free HSA, type A1887 (Sigma-Aldrich)
# Assay: intrinsic tryptophan fluorescence quenching (binding constant Ka, […]°C), synchronous fluorescence, thermal shift (Tm +[…]°C)
# T1 sequence (P02768 25-609): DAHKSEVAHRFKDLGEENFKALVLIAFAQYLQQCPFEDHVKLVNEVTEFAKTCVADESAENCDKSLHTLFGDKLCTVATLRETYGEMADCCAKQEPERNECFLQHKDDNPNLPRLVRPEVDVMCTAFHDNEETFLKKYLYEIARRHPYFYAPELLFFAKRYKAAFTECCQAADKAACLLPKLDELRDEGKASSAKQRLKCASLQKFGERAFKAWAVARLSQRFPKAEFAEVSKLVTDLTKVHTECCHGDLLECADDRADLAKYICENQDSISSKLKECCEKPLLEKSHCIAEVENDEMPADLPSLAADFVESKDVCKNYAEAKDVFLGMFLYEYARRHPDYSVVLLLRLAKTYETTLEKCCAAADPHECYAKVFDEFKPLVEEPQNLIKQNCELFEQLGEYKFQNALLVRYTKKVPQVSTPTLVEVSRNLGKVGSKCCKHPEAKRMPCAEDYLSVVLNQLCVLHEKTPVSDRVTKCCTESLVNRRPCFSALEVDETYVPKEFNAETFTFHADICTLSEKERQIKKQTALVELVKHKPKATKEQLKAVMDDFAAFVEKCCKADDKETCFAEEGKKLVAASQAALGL
compound,measurement,value
"CC(=O)O[C@H]1C2=C(C(=O)C(O)=C(C(C)C)C2=O)[C@@]2(C)CCCC(C)(C)[C@@H]2[C@@H]1O [compound 1, 7α-acetoxy-6β-hydroxyroyleanone]",Kd,15.4 µM

# — article PMC12716025, “Plectranthus‐derived Abietanes as Protein Kinase C‐δ Activators: In Silico Design, Human Serum Albumin Interaction, and Stability Evaluation” (Chemistry & Biodiversity, 2025)
